Measured values published in DBAASP.
≈ marks a conversion by molar mass, not a printed value.

How the values were obtained:
Test in all cases: ≥ marks a high value that may be exact or a test limit, other limits are often not marked, values filed in µg/mL are converted to µM
[1] = test system: Acinetobacter baumannii CCARM 12005
[2] = test system: Acinetobacter baumannii CCARM 12035
[3] = test system: Acinetobacter baumannii CCARM 12036
[4] = test system: Acinetobacter baumannii CCARM 12037
[5] = test system: Bacillus subtilis KCTC 1021
[6] = test system: Bacillus subtilis KCTC 1022
[7] = test system: Bacillus subtilis KCTC 3068
[8] = test system: Escherichia coli CCARM 1229
[9] = test system: Escherichia coli CCARM 1238
[10] = test system: Escherichia coli KCTC 1682
[11] = test system: Escherichia coli KCTC 2571
[12] = test system: Escherichia coli KCTC 2593
[13] = test system: Pseudomonas aeruginosa CCARM 2002
[14] = test system: Pseudomonas aeruginosa CCARM 2003
[15] = test system: Pseudomonas aeruginosa CCARM 2095
[16] = test system: Pseudomonas aeruginosa CCARM 2163
[17] = test system: Pseudomonas aeruginosa KCTC 1637
[18] = test system: Pseudomonas aeruginosa KCTC 2004
[19] = test system: Pseudomonas aeruginosa KCTC 2513
[20] = test system: Salmonella typhimurium CCARM 8003
[21] = test system: Salmonella typhimurium CCARM 8007
[22] = test system: Salmonella typhimurium CCARM 8009
[23] = test system: Salmonella typhimurium KCTC 1926
[24] = test system: Staphylococcus aureus CCARM 3089
[25] = test system: Staphylococcus aureus CCARM 3090
[26] = test system: Staphylococcus aureus CCARM 3108
[27] = test system: Staphylococcus aureus CCARM 3114
[28] = test system: Staphylococcus aureus CCARM 3126
[29] = test system: Staphylococcus aureus KCTC 1621
[30] = test system: Staphylococcus aureus KCTC 1916
[31] = test system: Staphylococcus aureus KCTC 3881
[32] = test system: Staphylococcus epidermidis KCTC 1917
[33] = test system: Erwinia amylovora PMV 6076
[34] = test system: Pseudomonas syringae pv. syringae EPS 94
[35] = test system: Xanthomonas campestris pv. Vesicatoria 2133-2
[36] = test system: Acinetobacter baumannii CICC 22934
[37] = test system: Bacillus cereus AS1.126
[38] = test system: Enterobacter cloacae CGMCC 1.58
[39] = test system: Enterococcus faecalis CGMCC 1.595
[40] = test system: Enterococcus faecium CGMCC 1.2334
[41] = test system: Escherichia coli AS1.349
[42] = test system: Klebsiella aerogenes CGMCC 1.876
[43] = test system: Klebsiella pneumoniae subsp. pneumoniae CGMCC 1.176
[44] = test system: Lactococcus lactis AS1.1690
[45] = test system: Proteus mirabilis CICC 22931
[46] = test system: Pseudomonas aeruginosa CGMCC 1.860
[47] = test system: Staphylococcus aureus AS1.72
[48] = test system: Bacillus subtilis PS832
[49] = test system: Escherichia coli DL7
[50] = test system: Klebsiella aerogenes ATCC 13048
[51] = test system: Staphylococcus epidermidis ATCC 12228

CC[C@H](C)[C@H](NC(=O)CNC(=O)[C@H](CCCN=C(N)N)NC(=O)[C@H](CCCCN)NC(=O)[C@@H](NC(=O)[C@H](Cc1cnc[nH]1)NC(=O)[C@H](Cc1cnc[nH]1)NC(=O)[C@H](Cc1ccccc1)NC(=O)[C@@H](N)Cc1ccccc1)[C@@H](C)CC)C(=O)N[C@@H](CCCCN)C(=O)N[C@@H](Cc1cnc[nH]1)C(=O)N[C@H](C(=O)NCC(=O)N[C@@H](CCCCN)C(=O)N[C@H](C(=O)N[C@H](C(=O)N[C@@H](Cc1cnc[nH]1)C(=O)N[C@@H](CCCN=C(N)N)C(=O)N[C@@H](CC(C)C)C(=O)N[C@H](C(=O)N[C@H](C(=O)NCC(=O)O)[C@@H](C)O)C(C)C)[C@@H](C)CC)[C@@H](C)O)C(C)C [FFHHIKRGIKHVGKTIHRLVTG]
MIC [1]: 4 µM (≈ 10.3 µg/mL) | MIC [2]: 4 µM (≈ 10.3 µg/mL) | MIC [3]: 4 µM (≈ 10.3 µg/mL) | MIC [4]: 4 µM (≈ 10.3 µg/mL) | MIC [5]: 8 µM (≈ 20.7 µg/mL) | MIC [6]: 4 µM (≈ 10.3 µg/mL) | MIC [7]: 4 µM (≈ 10.3 µg/mL) | MIC [8]: 8 µM (≈ 20.7 µg/mL) | MIC [9]: 8 µM (≈ 20.7 µg/mL) | MIC [10]: 2 µM (≈ 5.16 µg/mL) | MIC [11]: 4 µM (≈ 10.3 µg/mL) | MIC [12]: 4 µM (≈ 10.3 µg/mL) | MIC [13]: 4 µM (≈ 10.3 µg/mL) | MIC [14]: 4 µM (≈ 10.3 µg/mL) | MIC [15]: 2 µM (≈ 5.16 µg/mL) | MIC [16]: 2 µM (≈ 5.16 µg/mL) | MIC [17]: 4 µM (≈ 10.3 µg/mL) | MIC [18]: 8 µM (≈ 20.7 µg/mL) | MIC [19]: 8 µM (≈ 20.7 µg/mL) | MIC [20]: 16 µM (≈ 41.3 µg/mL) | MIC [21]: 8 µM (≈ 20.7 µg/mL) | MIC [22]: 8 µM (≈ 20.7 µg/mL) | MIC [23]: 8 µM (≈ 20.7 µg/mL) | MIC [24]: 8 µM (≈ 20.7 µg/mL) | MIC [25]: 8 µM (≈ 20.7 µg/mL) | MIC [26]: 8 µM (≈ 20.7 µg/mL) | MIC [27]: 8 µM (≈ 20.7 µg/mL) | MIC [28]: 8 µM (≈ 20.7 µg/mL) | MIC [29]: 4 µM (≈ 10.3 µg/mL) | MIC [30]: 4 µM (≈ 10.3 µg/mL) | MIC [31]: 4 µM (≈ 10.3 µg/mL) | MIC [32]: 4 µM (≈ 10.3 µg/mL)

CC[C@H](C)[C@H](NC(=O)[C@H](CCCCN)NC(=O)[C@H](CCCCN)NC(=O)[C@H](Cc1ccccc1)NC(=O)[C@H](CC(C)C)NC(=O)[C@H](CCCCN)NC(=O)[C@@H](N)CCCCN)C(=O)N[C@@H](CC(C)C)C(=O)N[C@@H](CCCCN)C(=O)N[C@@H](Cc1ccc(O)cc1)C(=O)N[C@@H](CC(C)C)C(=O)N[C@@H](CCCCN)C(=O)N[C@@H](Cc1ccccc1)C(=O)N[C@@H](CC(C)C)C(=O)N[C@@H](Cc1cnc[nH]1)C(=O)N[C@@H](CO)C(=O)N[C@@H](C)C(=O)N[C@@H](CCCCN)C(=O)O [KKLFKKILKYLKFLHSAK]
MIC [33]: 3.54 µM (≈ 7.9 µg/mL) | MIC [34]: 3.54 µM (≈ 7.9 µg/mL) | MIC [35]: 3.54 µM (≈ 7.9 µg/mL)

CC(C)C[C@H](NC(=O)[C@H](Cc1cnc[nH]1)NC(=O)[C@H](CCCN=C(N)N)NC(=O)CNC(=O)[C@@H](NC(=O)[C@H](C)NC(=O)[C@@H](N)CO)C(C)C)C(=O)N[C@@H](CCCN=C(N)N)C(=O)N[C@@H](CCCN=C(N)N)C(=O)N[C@@H](Cc1ccccc1)C(=O)N[C@@H](CC(C)C)C(=O)N[C@@H](CC(C)C)C(=O)N[C@@H](CCCN=C(N)N)C(=O)N[C@@H](CCCCN)C(=O)N[C@@H](Cc1cnc[nH]1)C(=O)N[C@@H](CCCN=C(N)N)C(=O)N[C@@H](CCCCN)C(=O)N[C@@H](Cc1cnc[nH]1)C(=O)O [SAVGRHLRRFLLRKHRKH]
MIC [36]: ≥ 100 µM | MIC [37]: 2.34 µM (≈ 5.31 µg/mL) | MIC [38]: ≥ 100 µM | MIC [39]: 4.69 µM (≈ 10.6 µg/mL) | MIC [40]: 4.69 µM (≈ 10.6 µg/mL) | MIC [41]: ≥ 100 µM | MIC [42]: ≥ 100 µM | MIC [43]: ≥ 100 µM | MIC [44]: 4.69 µM (≈ 10.6 µg/mL) | MIC [45]: ≥ 100 µM | MIC [46]: ≥ 100 µM | MIC [47]: 3.13 µM (≈ 7.1 µg/mL)

CC[C@H](C)[C@H](NC(=O)[C@H](CCCN=C(N)N)NC(=O)[C@H](CCCCN)NC(=O)[C@H](CC(C)C)NC(=O)[C@H](CC(C)C)NC(=O)CNC(=O)[C@H](Cc1cnc[nH]1)NC(=O)[C@@H](NC(=O)[C@@H](N)C(C)C)[C@@H](C)CC)C(=O)N[C@@H](CCCCN)C(=O)N[C@H](C(=O)N[C@@H](CC(C)C)C(=O)N[C@@H](CC(C)C)C(N)=O)[C@@H](C)O [VIHGLLKRIKTLL]
MIC [48]: 0.5 µM (≈ 0.751 µg/mL) | MIC [49]: 2 µM (≈ 3.01 µg/mL) | MIC [50]: ≥ 32 µM | MIC [51]: 2 µM (≈ 3.01 µg/mL)
